Test results published in ChEMBL document CHEMBL3217427, “Identification of 3-aminothieno[2,3-b]pyridine-2-carboxamides and 4-aminobenzothieno[3,2-d]pyrimidines as LIMK1 inhibitors” (Medchemcomm, 2011).

Legend:
[1] = target: T1, LIM domain kinase 1 (Homo sapiens, UniProt P53667); experiment: Inhibition of LIMK1 (unknown origin) using cofilin-2 as substrate at 30 uM after 60 mins by Kinase-Glo assay relative to control
Target sequence in this assay (P53667 whole entry, looked up, the tested form may be a part): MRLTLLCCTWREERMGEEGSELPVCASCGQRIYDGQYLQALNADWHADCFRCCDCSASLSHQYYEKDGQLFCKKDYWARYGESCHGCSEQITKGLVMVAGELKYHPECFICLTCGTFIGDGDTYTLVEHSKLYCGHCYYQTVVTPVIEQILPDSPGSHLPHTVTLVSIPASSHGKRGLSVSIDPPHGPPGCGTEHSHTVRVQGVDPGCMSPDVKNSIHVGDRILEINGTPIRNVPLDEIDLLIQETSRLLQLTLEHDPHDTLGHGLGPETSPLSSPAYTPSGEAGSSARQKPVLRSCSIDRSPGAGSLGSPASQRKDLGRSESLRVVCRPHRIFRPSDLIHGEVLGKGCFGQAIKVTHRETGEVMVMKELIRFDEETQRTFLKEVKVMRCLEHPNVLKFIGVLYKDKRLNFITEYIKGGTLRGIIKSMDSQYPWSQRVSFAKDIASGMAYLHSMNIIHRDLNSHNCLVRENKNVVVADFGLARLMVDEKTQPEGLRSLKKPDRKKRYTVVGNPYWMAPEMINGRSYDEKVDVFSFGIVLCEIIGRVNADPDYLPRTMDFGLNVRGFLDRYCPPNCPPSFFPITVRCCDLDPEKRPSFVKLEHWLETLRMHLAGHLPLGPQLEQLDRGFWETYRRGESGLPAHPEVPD

[2] = target: T1, LIM domain kinase 1; experiment: Inhibition of LIMK1 (unknown origin) using cofilin-2 as substrate after 60 mins by Kinase-Glo assay
Target sequence in this assay (P53667 whole entry, the tested form may be a part): as the sequence (P53667 whole entry, looked up, the tested form may be a part) above

| inhibition [1] [%] | IC50 [2] [µM] | SMILES |
| --- | --- | --- |
| 50 | – | NC(=O)c1sc2nc3c(c(-c4cccs4)c2c1N)CCC3 |
| – | 44 | COc1ccc(-c2cc(-c3ccccc3)nc3sc(C(N)=O)c(N)c23)cc1 |
| – | 15 | Nc1ncnc2c1oc1ccccc12 |
| 67 | – | CN(C)c1ccnc2sc(C(N)=O)c(N)c12 |
| – | 5.5 | Nc1ncnc2c1sc1cccc(-c3ccccc3)c12 |
| – | > 50 | Nc1nc(-c2ccccc2)nc2c1sc1ncccc12 |
| – | > 100 | NNC(=O)c1sc2ncccc2c1N |
| – | 34 | CNc1c(C(N)=O)sc2ccccc12 |
| – | 43 | Nc1ncnc2c1sc1cccnc12 |
| – | > 100 | Nc1c(C(=O)O)sc2ccccc12 |
| – | 1.6 | NC(=O)c1sc2nc(-c3cccs3)cc(C(F)(F)F)c2c1N |
| – | > 100 | Nc1ncnc2c1sc1nccnc12 |
| – | 41 | Cc1ccc(-c2cc(C(F)(F)F)c3c(N)c(C(N)=O)sc3n2)o1 |
| – | 2 | NC(=O)c1sc2nc(-c3ccccc3)cc(-c3ccco3)c2c1N |
| 40 | – | NC(=O)c1sc2ncccc2c1N |
| 2 | – | Nc1c(C(=O)NC2CCCCC2)sc2ncccc12 |
| – | > 100 | CN(C)C(=O)c1sc2ncccc2c1N |
| 0 | – | Nc1c(C(=O)N2CCOCC2)sc2ncccc12 |
| – | > 100 | NC(=O)c1cc2ccccc2s1 |
| – | 37 | Cc1cc(-c2ccc(Cl)cc2)c2c(N)c(C(N)=O)sc2n1 |
| – | > 100 | CNC(=O)c1sc2ncccc2c1N |
| – | 43 | Cc1nc(N)c2sc3ncccc3c2n1 |

| inhibition [1] [%] | IC50 [2] [µM] | SMILES |
| --- | --- | --- |
| – | 2.8 | NC(=O)c1sc2nc(-c3ccccc3)c3c(c2c1N)CCCC3 |
| – | > 100 | NC(=O)c1sc2ccccc2c1O |
| – | > 100 | Nc1c(C(=O)O)sc2ncccc12 |
| 79 | 11 | Cc1ccnc2sc(C(N)=O)c(N)c12 |
| – | 5.7 | Nc1ncnc2c1sc1ccc(-c3ccccc3)cc12 |
| – | 9 | Cc1cc(C)c2c(N)c(C(N)=O)sc2n1 |
| 16 | – | NC(=O)c1sc2ncc3c(c2c1N)CCCC3 |
| – | 30 | NC(=O)c1sc2nc(Cc3ccccc3)cc(C(F)(F)F)c2c1N |
| 15 | – | Nc1c(C(=O)Nc2ccccc2)sc2ncccc12 |
| – | 3 | NC(=O)c1sc2nc(-c3ccccc3)ccc2c1N |
| – | > 100 | CCOC(=O)c1sc2ccccc2c1N |
| 0 | – | Nc1c(C(=O)Nc2ccccc2)sc2nccc(Nc3ccccc3)c12 |
| – | 7.1 | NC(=O)c1sc2nc(-c3cccnc3)ccc2c1N |
| – | 1.3 | NC(=O)c1sc2nc(-c3ccc4c(c3)OCCO4)cc(C(F)(F)F)c2c1N |
| – | 92 | NC(=O)c1sc2cccnc2c1N |
| – | 56 | Cc1ccc2c(N)c(C(N)=O)sc2n1 |
| – | > 100 | NC(=O)c1oc2ccccc2c1N |
| – | 0.7 | Nc1ncnc2c1sc1nc(-c3ccccc3)ccc12 |
| – | 6.1 | Nc1ncnc2c1sc1c(-c3ccccc3)cccc12 |
| – | 4 | Nc1ncnc2c1[nH]c1ccccc12 |
| 98 | – | NC(=O)c1sc2nccc(Nc3ccccc3)c2c1N |
